Results from PMC10955127 (Frontiers in Pharmacology, 2024).
Where two headings read alike, the source gives them in different places.

Experiments:
[1] = In vitro skin penetration and metabolism, fresh viable pig skin on static Franz cells
From the text: Fresh viable pig skin (without hot steam treatment, by-product from meat industry) was obtained from a local, commercial butcher (Hammoor, Germany). The back skin was from female pigs (bred from “Dänische Landrasse” (female) and Pietrain (male) pigs, ~130 days old, 100 kg body weight). Pig skin samples were gently dry-shaved and washed with water before use. For the experiment, 2 replicate discs from each of 3 donors were used.
Skin of full-thickness was mounted on static Franz cells with a 4.9 cm² application area. The receptor compartment of the diffusion cell was filled with approx. 5 ml RF (1% BSA, 0.9% NaCl, 0.05% gentamycin sulfate in water), above a magnetic stirrer set to low rotation. […] The experiment was conducted using non-occluded conditions.
The dermal absorption was calculated as the total amount present within epidermis (without the amount in the total SC strips), dermis and RF.

[2] = design: method as in ToxCast database; conditions: ref ToxCast database; cited from earlier work
Aromatase = system: Aromatase; design: method as in ToxCast database; conditions: ref ToxCast database; cited from earlier work
thyroid pathway [3] = system: thyroid pathway; design: method as in ToxCast database; conditions: ref ToxCast database; cited from earlier work
thyroid pathway [4] = system: thyroid pathway; design: method as in ToxCast database; conditions: ref ToxCast database; cited from earlier work; remark: listed apart in the source
MCF-7 cells = format: cell-based; conditions: 1,000 µM SA or 1 μM trichostatin A, analysis Method 1

O=Cc1ccccc1 [Benzaldehyde, benzaldehyde]
Total recovery ([1]; 24 h after application of 0.5% BSal in formulation, SA corrected by the amount of SA present in the formulation): < LOQ*

O=C(O)CNC(=O)c1ccccc1 [Hippuric acid, hippuric acid]
Receptor fluid [1]: < LOQ*
Surface [1]: < LOQ*
Result in all 259 ToxCast assays [2]: SA: alerts for developmental toxicity, reproductive toxicity, nephrotoxicity, hepatotoxicity, Hippuric acid: negative in all 259 ToxCast assays
Steroidogenesis Aromatase: Call (Aromatase): Negative
Thyroid pathway Reporter protein Agonist: Call (thyroid pathway [3]): Negative
Thyroid pathway Reporter protein Antagonist: Call (thyroid pathway [4]): Negative

CC(/C=C/C(=O)NO)=C\[C@@H](C)C(=O)c1ccc(N(C)C)cc1 [trichostatin A, Trichostatin A]
Number of genes altered by > 1.5-fold or < -1.5-fold (MCF-7 cells; 6 h): ~10,000 genes
Number of genes altered by > 1.5-fold or < -1.5-fold (MCF-7 cells; 24 h): ~10,000 genes
